The test system of data set [1] is preadipocytes / differentiating adipocytes. The data set is described as follows: Adipocyte differentiation assay, markers taken together. The format is cell-based, human. The settings on record: for expression levels of markers of adipocyte differentiation (TG, leptin, aP2, HSL, Glut4, PPARγ): preadipocytes, 250 nM, day nine post-transfection, relative to ISIS-29848; for five markers of adipocyte differentiation / 5 markers of adipocyte differentiation / expression of the other four hallmark genes (HSL, aP2, Glut4, PPARγ): differentiating adipocytes; for five markers of adipocyte differentiation: % of UTC (Table 55); for 5 markers of adipocyte differentiation: % of UTC (Table 75); for expression of the other four hallmark genes (HSL, aP2, Glut4, PPARγ): control ISIS 342673. How it is done:
Oligomeric compounds of the invention are tested for their effects on preadipocyte differentiation. […] For the other adipocyte differentiation markers assayed, an oligomeric compound targeted to PPAR-γ, also known to inhibit adipocyte differentiation, may be used as a positive control.
Cells are transfected as described herein. […] Untreated control cells receive LIPOFECTIN™ only.
After the cells have reach confluence (approximately three days), they are exposed for an additional three days to differentiation medium (Zen-Bio, Inc., Research Triangle Park, N.C.) containing a PPAR-γ agonist, IBMX, dexamethasone, and insulin. Cells are then fed adipocyte medium (Zen-Bio, Inc.), which is replaced at 2 or 3 day intervals.
For assaying adipocyte differentiation, expression of the four hallmark genes, HSL, aP2, Glut4, and PPARγ, as well as triglyceride (TG) accumulation and leptin secretion were measured in adipocytes transfected with the uniform 2′-MOE phosphorothioate (PS) oligomeric compounds previously described. Cells are lysed on day nine post-transfection, in a guanadinium-containing buffer and total RNA is harvested. Real-time PCR is performed (Applied Biosystems, Prism 7700) on the total RNA using the following primer/probe sets for the adipocyte differentiation hallmark genes: (aP2): forward 5′-GGTGGTGGAATGCGTCATG-3′ (SEQ ID NO: 746), reverse 5′-[…]-3′ (SEQ ID NO: 747), probe 5′-FAM-[…]-TAMRA-3′ (SEQ ID NO: 748); (Glut4): forward 5′-GGCCTCCGCAGGTTCTG-3′ (SEQ ID NO: 749), reverse 5′-[…]-3′ (SEQ ID NO: 750), probe 5′-FAM-[…]-TAMRA-3′ (SEQ ID NO: 751); (HSL): forward 5′-ACCTGCGCACAATGACACA-3′ (SEQ ID NO: 752), reverse 5′-[…]-3′ (SEQ ID NO: 753), probe 5′-FAM-[…]-TAMRA-3′ (SEQ ID NO: 754); (PPAR-γ): forward 5′-[…]-3′ (SEQ ID NO: 755), reverse 5′-[…]-3′ (SEQ ID NO: 756), probe 5′-FAM-[…]-TAMRA-3′ (SEQ ID NO: 757). The amount of total RNA in each sample is determined using a Ribogreen Assay (Molecular Probes, Eugene, Oreg.), and expression levels of the adipocyte differentiation hallmark genes were normalized to total RNA. Leptin protein and triglyceride levels as well as mRNA levels for each of the four adipocyte differentiation hallmark genes are expressed relative to control levels (control=treatment with ISIS-29848 (SEQ ID NO: 737)).
In some embodiments, differentiating adipocytes were treated with uniform 2′-MOE phosphorothioate oligomeric compounds according to the methods described above, and the expression of the four hallmark genes, HSL, aP2, Glut4, and PPARγ, as well as triglyceride (TG) accumulation were measured. […] Undifferentiated adipocytes were also compared as a negative control. […] The effects of TNF-α, also known to inhibit adipocyte differentiation, were also measured.

The next data set deals with PPARγ. Description: PPARγ mRNA expression in adipocytes (real-time PCR). The following applies: preadipocytes, 250 nM, day nine. The format is cell-based, human.
The next data set concerns T47D cells. Description: Caspase-3 activity assay (apoptosis) in T47D cells. The settings on record: caspase assay, 200 nM; conclusion from Tables 9-12.
Another data set relates to PEPCK-c. The data set is described as follows: PEPCK-c mRNA expression in HepG2 cells. The format is cell-based, human. The following applies: HepG2, 1 nM insulin, 100 nM.
For data set [2], the system named is BJ, B16-F10, T47D, T47Dp53 and HeLa cells. Description: Cell cycle assay (propidium iodide flow cytometry), cell line panel. The following applies: 150 nM, 72 hours (Table 29). The format is cell-based. (In general: Flow cytometry measures light scatter and fluorescence of single cells or particles in a stream.)
The next data set concerns HeLa cells. The data set is described as follows: Cell cycle assay in HeLa cells. Format: cell-based, human. The following applies: HeLa, 150 nM.
Another data set deals with HuVECs. The data set is described as follows: Endothelial tube formation assay in HuVECs. The settings on record: 75 nM.

17 substances from patent US8178506B2, “Oligomeric compounds and compositions for use in modulation of small non-coding RNAs” (Regulus Therapeutics Inc., priority 2003, dated 2012) can be followed below.

Entries after “also recorded” stand apart in the source; their conditions may differ. In the oligonucleotide strings, read from the 5' end, every base follows the letter of its sugar. An asterisk marks phosphorothioate; unmarked linkages are phosphodiester. Other units and linkages are bracketed, terminal groups are in braces. A string of capitals states the bases alone. e = 2'-O-(2-methoxyethyl) (MOE); [5mC] = 5-methylcytosine; d = 2'-deoxy (DNA)

As for “AACCATACAACCTACTACCTCA (chemistry not given here) [ISIS 327931, uniform 2′-MOE PS; targets let-7c]”, the “expression levels of markers of adipocyte differentiation (TG, leptin, aP2, HSL, Glut4, PPARγ)” value in data set [1] is on record as “increase in four out of six markers of adipocyte differentiation; also recorded: increase in expression levels for several markers of adipocyte differentiation”. In addition, in the data set with PPARγ, the “expression of PPAR-γ” value is reported as “significant increase in the expression of PPAR-γ”.
“ISIS 328400: 5-10-5 2′-MOE gapmer PS; targets mir-196-2 pri-miRNA (eA*eG*eT*eT*e[5mC]*dA*dA*dA*dA*d[5mC]*dT*d[5mC]*dA*dA*dT*e[5mC]*e[5mC]*e[5mC]*eA*eA)”: the “apoptosis in T47D cells” value in the data set on T47D cells is recorded as “induce apoptosis”. Also, in data set [1], the “five markers of adipocyte differentiation” value is “reduce the expression levels of all five markers of adipocyte differentiation”.
As for “AATCTCATTTTCATACTTGCA (anti-miR; chemistry not fully specified) [ISIS 328114, uniform 2′-MOE PS; targets hypothetical miRNA-138]”, in data set [1], the “five markers of adipocyte differentiation” value is “increase in all five markers of adipocyte differentiation”. For the same substance, the “reduction of PEPCK-c mRNA expression” value in the data set with PEPCK-c is 59%.
On to “CTACCTGCACGAACAGCACTTT (chemistry not given here) [ISIS 340348, uniform 2′-MOE PS; targets mir-93]”, for which the “5 markers of adipocyte differentiation” value in data set [1] was “significantly reduce the expression levels of 3 of the 5 markers of adipocyte differentiation”. Further, in data set [2], the “percentage of cells with hypodiploid DNA content (subG1)” value is recorded as “increased percentage of cells with hypodiploid DNA content”.
Regarding “CCCAACAACATGAAACTACCTA (chemistry not given here) [ISIS 327909, uniform 2′-MOE PS; targets mir-196-2]”, the “five markers of adipocyte differentiation” value in data set [1] is given as “increase in three of the five markers of adipocyte differentiation”.
Turning to “CAGACTCCCAACTGACCAGA (chemistry not fully specified) [ISIS 328382, 5-10-5 2′-MOE gapmer PS; targets the mir-143 pri-miRNA]”, in data set [1] (preadipocytes (Table 20)), the “expression of the adipocyte differentiation markers, compounds targeting mir-143 miRNA or pri-miRNA compared” value is reported as “more effective in blocking adipocyte differentiation”.
Consider “ISIS 341798: SEQ ID NO: 1871, targeted to mir-123/mir-126 (antisense GCAUUAUUACUCACGGUACGA; all 2'-MOE, all phosphorothioate, methylation of C and T or U not given here)”, for which, in data set [1], the “5 markers of adipocyte differentiation” value is “significantly reduce the expression levels of 3 of the 5 markers of adipocyte differentiation”.
With “AAGGGATTCCTGGGAAAACTGGAC (chemistry not given here) [ISIS 327933, uniform 2′-MOE PS; targets mir-145]”, the “phase of the cell cycle in which cells arrest or delay” value was “G2/M-phase” in the data set on HeLa cells (24 hours) and “subG1-phase” in the data set with HeLa cells (48 hours). Moreover, the “expression levels of markers of adipocyte differentiation (TG, leptin, aP2, HSL, Glut4, PPARγ)” value in data set [1] was “increase in all six markers of adipocyte differentiation”. In addition, in data set [2], the “percentage of cells in the G2/M phase” value was “increased percentage of cells in the G2/M phase”.
In the case of “AACACTGATTTCAAATGGTGCTA (anti-miR; chemistry not fully specified) [ISIS 327876, uniform 2′-MOE PS; targets mir-29b-1]”, the “expression levels of markers of adipocyte differentiation (TG, leptin, aP2, HSL, Glut4, PPARγ)” value in data set [1] is given as “reduce the expression of several hallmark genes of adipocyte differentiation”.
For the substance “AACTACTTCCAGAGCAGGTGA (anti-miR; chemistry not fully specified) [ISIS 328136, uniform 2′-MOE PS; targets hypothetical miRNA-181]”, the “expression of the other four hallmark genes (HSL, aP2, Glut4, PPARγ)” value (shortened to “expression … (HSL, aP2, Glut4, PPARγ)”) in data set [1] is “reduction of expression of the other four hallmark genes”.
For “AACCGATTTCAGATGGTGCTAG (anti-miR; chemistry not fully specified) [ISIS 327928]”, the “five markers of adipocyte differentiation” value in data set [1] is “reduce the expression levels of all five markers of adipocyte differentiation”. Besides, the tube formation entry in the data set with HuVECs is reported as “suppressed tube formation”.
Regarding “CCCCATCTTAGCATCTAAGG (chemistry not fully specified) [ISIS 328691, 5-10-5 2′-MOE gapmer PS; targets mir-145 pri-miRNA]”, in data set [1], the “five markers of adipocyte differentiation” value is given as “increase in all five markers of adipocyte differentiation”.
For “AACTATACAACCTACTACCTCA (chemistry not fully specified) [ISIS 327903, uniform 2′-MOE PS; targets let-7a-3]”, the “expression levels of markers of adipocyte differentiation (TG, leptin, aP2, HSL, Glut4, PPARγ)” value in data set [1] is recorded as “increase in expression levels for several markers of adipocyte differentiation”.
Take “ACTCACCGACAGCGTTGAATGTT (chemistry not given here) [ISIS 327904, uniform 2′-MOE PS; targets mir-181a]”: the “five markers of adipocyte differentiation” value in data set [1] is on record as “reduce the expression levels of all five markers of adipocyte differentiation”.
As for “ISIS 340352: SEQ ID NO: 1821, targeted to mir-99 (Mourelatos) (CACAAGAUCGGAUCUACGGGUU; all 2'-MOE, all phosphorothioate, methylation of C and T or U not given here)”, in data set [1], the “5 markers of adipocyte differentiation” value is “increases in 4 of the 5 markers of adipocyte differentiation”.
“TCCACAAAGCTGAACATGTCT (anti-miR; chemistry not fully specified) [ISIS 328117, uniform 2′-MOE PS; targets hypothetical miRNA-144]”: in data set [1], the “expression … (HSL, aP2, Glut4, PPARγ)” value was “reduction of expression of the other four hallmark genes”.
Consider “AGCCTCCTTCTTCTCGTACTA (anti-miR; chemistry not fully specified) [ISIS 328129, uniform 2′-MOE PS; targets hypothetical miRNA-173]”, for which, in data set [1], the “expression … (HSL, aP2, Glut4, PPARγ)” value is on record as “reduction of expression of the other four hallmark genes”.
